Assay results taken from publication PMC5201275, “Structural and Catalytic Properties of S1 Nuclease from Aspergillus oryzae Responsible for Substrate Recognition, Cleavage, Non–Specificity, and Inhibition” (PLoS ONE, 2016).

Target: T1, S1 nuclease (S1wt; S1D65N) (Aspergillus oryzae, UniProt P24021)
T1 construct: gene nucS; Endo F1 deglycosylated for crystals; three Zn2+
T1 sequence (P24021 21-287): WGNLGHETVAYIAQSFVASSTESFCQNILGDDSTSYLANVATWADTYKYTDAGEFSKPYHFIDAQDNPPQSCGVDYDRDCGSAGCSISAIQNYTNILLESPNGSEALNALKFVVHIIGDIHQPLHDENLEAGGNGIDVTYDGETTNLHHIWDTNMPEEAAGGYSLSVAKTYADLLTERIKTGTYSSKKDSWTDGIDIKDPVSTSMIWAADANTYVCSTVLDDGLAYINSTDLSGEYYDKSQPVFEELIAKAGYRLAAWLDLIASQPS
Assay: X-ray crystal structure
Type: binding

Row | Compound | X-ray crystal structure (pH 5.5, zinc cluster, first binding mode, occupancy 0.5, not added (no co-crystallization), also in 5FBB (pH 6.5) and 5FBD (pH 4.2, second mode)) | X-ray crystal structure (pH 4.2, NBS1, shallow mode, with phosphate in zinc cluster, co-crystallized with dC(pS)dC)
1 | O=P(O)(O)O [Pi, phosphate ion] | A phosphate ion inside the zinc cluster in the first binding mode is modeled | 
2 | Nc1ccn([C@H]2C[C@H](O)[C@@H](CO)O2)c(=O)n1 [dCyt, 2'–deoxycytidine] |  | The structure contains one phosphate ion and one molecule of dCyt in the active site
